In US10865203B2, “Ligands selective to alpha 6 subunit-containing GABAA receptors and their methods of use” (UWM Research Foundation, Inc., priority 2015, dated 2020):

Tests used:
[1] = Microsomal stability assay, mouse liver microsomes; type: in vitro ADME; details: for stability in Mouse liver microsomes: Table 2
In short: (§1)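 Test compound at 10 μM was preincubated 5 min at 37 °C in phosphate buffer pH 7.4 with NADPH regenerating system, then started with human or mouse liver microsomes at 0.5 mg/mL protein. Samples were taken at 0–60 min and quenched in cold acetonitrile with internal standard. Slope k came from ln peak-area ratio versus time, three repeats in duplicate.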

[2] = Microsomal stability assay, human liver microsomes; type: in vitro ADME; details: for % left after 1 hr. (HLM) / half-life at 10 μM / Half-life (min) (HLM): 10 μM test compound, 0.5 mg/mL protein, 37° C.; for stability in Human liver microsomes: Table 2; for half-life at 10 μM: human, liver microsomes, pH 7.4, read-out: Half-life (min) (HLM)
In short: as §1

[3] = system: binary αxβ3 (x=1, 2, 3, 5) receptors; assay: Electrophysiology in Xenopus oocytes, binary receptors; type: cell-based, rat
Procedure: Mature female Xenopus laevis (Nasco, Fort Atkinson, Wis., USA) were anaesthetized in a bath of ice-cold 0.17% Tricain (Ethyl-m-aminobenzoat, Sigma-Aldrich, St. Louis, Mo., USA) before decapitation and transfer of the frog's ovary to ND96 medium (96 mM NaCl, 2 mM KCl, 1 mM MgCl2, 5 mM HEPES; pH 7.5). Following incubation in 1 mg/mL collagenase (Sigma-Aldrich, St. Louis, Mo., USA) for 30 min, stage 5 to 6 oocytes were singled out of the ovary and defolliculated using a platinum wire loop. Oocytes were stored and incubated at 18° C. in NDE medium (96 mM NaCl, 2 mM KCl, 1 mM MgCl2, 5 mM HEPES, 1.8 mM CaCl2; pH 7.5) that was supplemented with 100 U per mL-1 penicillin, 100 μg per mL-1 streptomycin and 2.5 mM pyruvate. Oocytes were injected with an aqueous solution of mRNA. A total of 2.5 ng of mRNA per oocyte was injected. Subunit ratio was 1:1:5 for αxβγ2 (x=1, 2, 3, 5) and 3:1:5 for α4/6β3γ2 and αβδ receptors. Injected oocytes were incubated for at least 36 h before electrophysiological recordings. Oocytes were placed on a nylon-grid in a bath of NDE medium. For current measurements, the oocytes were impaled with two microelectrodes (2-3MΩ), which were filled with 2 M KCl. The oocytes were constantly washed by a flow of 6 mL per min-1 NDE that could be switched to NDE containing GABA and/or drugs. Drugs were diluted into NDE from DMSO solutions resulting in a final concentration of 0.1% DMSO. Maximum currents measured in mRNA injected oocytes were in the microampere range for all receptor subtypes. […] Data were digitized using a Digidata 1322A or 1550 data acquisition system (Axon Instruments, Union City, Calif., USA), recorded using Clampex 10.5 software (Molecular Devices, Sunnyvale, Calif., USA), and analyzed using Clampfit 10.5 and GraphPad Prism 6.0 (La Jolla, Calif., USA) software. […]
For selected test compounds full dose response curves were recorded in α1-6β3γ2 receptors. […]

[4] = 10 μM test compound, 0.5 mg/mL protein, 37° C.

| Compound | % left after 1 hr. (MLM) [1, 4] [%] | Half-life (min) (MLM) [1, 4] | stability in Mouse liver microsomes [1] [%] | % left after 1 hr. (HLM) [2] [%] | stability in Human liver microsomes [2] [%] | half-life at 10 μM [2] [min] | efficacy in binary αxβ3 receptors [3] | Half-life (min) (HLM) [2] | half-life at 10 μM ([1]; mouse, liver microsomes, pH 7.4, 10 μM test compound, 0.5 mg/mL protein, 37° C., read-out: Half-life (min) (MLM)) | higher stability compared to non-Deuterated (DK-II-13-1) ([1]; mouse liver microsomes) [%] |
| --- | --- | --- | --- | --- | --- | --- | --- | --- | --- | --- |
| COc1cccc(-n2nc3c4cc(Cl)ccc4[nH]cc-3c2=O)c1 [LAU 159, 8-Chloro-2-(3-methoxyphenyl)-2,5-dihydro-3H-pyrazolo[4,3-c]quinolin-3-one] | 59.83 ± 0.23 | 89.07 ± 5.22 | ~60 | 81.44 ± 0.16 | ~80 | 207 ± 15 | low efficacy | – | – | – |
| [2H]C([2H])([2H])Oc1ccc(-n2nc3c4ccc(OC)cc4[nH]cc-3c2=O)cc1 [DK-I-56-1, 7-Methoxy-2-(4-methoxy-d3-phenyl)-2,5-dihydro-3H-pyrazolo[4,3-c]quinolin-3-one] | 92.8 ± 0.09 | 628.8 ± 73 | – | 91.69 ± 0.09 | – | – | – | 520 ± 51 | – | – |
| COc1ccc(-n2nc3c4ccc(OC)cc4[nH]cc-3c2=O)cc1 [Compound 6, 7-Methoxy-2-(4-methoxyphenyl)-2,5-dihydro-3H-pyrazolo[4,3-c]quinolin-3-one] | 80.35 ± 0.14 | – | 80 | 86.1 ± 1.0 | 86 | 212 ± 25 | low efficacy | – | 194 ± 11.4 | – |
| [2H]C([2H])([2H])Oc1ccc2c3nn(-c4ccc(OC)nc4)c(=O)c-3c[nH]c2c1 [DK-I-86-1, 7-Methoxy-d3-2-(6-methoxypyridin-3-yl)-2,5-dihydro-3H-pyrazolo[4,3-c]quinolin-3-one] | 91.3 ± 0.12 | 550.6 ± 78 | – | 92.3 ± 0.13 | – | – | – | 752.30 ± 261 | – | ~20 |
| COc1ccc(-n2nc3c4ccc(Br)cc4[nH]cc-3c2=O)cc1 [LAU 463, 7-Bromo-2-(4-methoxyphenyl)-2,5-dihydro-3H-pyrazolo[4,3-c]quinolin-3-one] | 69 ± 0.16 | 113.17 ± 5.15 | – | 66.86 ± 0.13 | – | 104 ± 4 | low efficacy | – | – | – |
